Data reported in patent US12195427B2, “MASP-2 inhibitors and methods of use” (priority 2018, dated 2025).
Structures can show the parent of a compound that is named as a salt. Blank lines part the entries; values can stand above or below the compound they belong to.

Target: MASP-2 CCP2-SP (Homo sapiens (Human), UniProt O00187)
Experiment: MASP-2 co-crystallization, X-ray crystallography and structure analysis (H-bonds, van der Waals contacts);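 on Ligand-pharmacophore element distance, pharmacophore element C2: distance from averaged pharmacophore element to bound ligand; missing value means element absent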;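 on Ligand-pharmacophore element distance, pharmacophore element C3: distance from averaged pharmacophore element to bound ligand; missing value means element absent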;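 on Ligand-pharmacophore element distance, pharmacophore element C4: distance from averaged pharmacophore element to bound ligand; missing value means element absent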;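 on Ligand-pharmacophore element distance, pharmacophore element C5: distance from averaged pharmacophore element to bound ligand; missing value means element absent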
Parameters: van der Waals contact distance, MASP-2 HIS 483 atom CD2 / van der Waals contact distance, MASP-2 HIS 483 atom NE2 / van der Waals contact distance, SER 654 C to compound atom / van der Waals contact distance, SER 654 O to compound atom / van der Waals contact distance, TRP 655 C to compound atom / van der Waals contact distance, MASP-2 GLY 528 atom CA / van der Waals contact distance TRP 655 atom CZ3 / van der Waals contact distance TRP 655 atom N / van der Waals contact distance TRP 655 atom CE3 / van der Waals contact distance GLY 656 atom C / van der Waals contact distance GLY 656 atom CA / van der Waals contact distance GLY 656 atom O / van der Waals contact distance, MASP-2 TYR 607 atom CD1 / van der Waals contact distance, MASP-2 PRO 606 atom O / d(C3,CA1) / d(CA1,N1)2 / d(H4,O1) / d(H4,O2) / d(O1,O2) / d(CA1,O2) / d(CA6,O1) / d(CA6,O2) / d(CA1,C5) / d(O2,H3) / d(N2,C2) / d(CA5,N2) / d(N2,C4) / d(N2,C6) / d(N2,CA3) / d(N2,O3) / d(O4,H2): unit not given beside the values
Details: for H-bond distance to MASP-2 ASP 627 atom OD2 / H-bond distance to MASP-2 GLY 656 atom N / H-bond distance to MASP-2 SER 628 atom O / H-bond distance to MASP-2 SER 657 atom O / H-bond distance to MASP-2 GLY 656 atom O / H-bond distance to MASP-2 SER 654 atom O: Table A1 (H-Bonds); for H-bond distance to MASP-2 ASP 627 atom OD2: ASP 627 OD2; for H-bond distance to MASP-2 GLY 656 atom N: GLY 656 N; for H-bond distance to MASP-2 SER 628 atom O: SER 628 O; for H-bond distance to MASP-2 SER 657 atom O: SER 657 O; for van der Waals contact distance, MASP-2 HIS 483 atom CD2 / van der Waals contact distance, MASP-2 HIS 483 atom NE2: Table A2-1; for H-bond distance to MASP-2 GLY 656 atom O: GLY 656 O; for H-bond distance to MASP-2 SER 654 atom O: SER 654 O; for van der Waals contact distance GLY 656 atom CA: MASP-2 GLY 656 CA
Summary of the method: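 First, CCP2-SP constructs with or without a 6His tag are produced in E. coli. Crystals are then soaked once or twice with inhibitor, cryoprotected in 20% glycerol or frozen directly, and diffracted at synchrotron beamlines. Phasing uses molecular replacement with parts of 1Q3X.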

[1] = Table A5-1 pharmacophore: distance between elements, S2/S1 region
[2] = Table A5-2 pharmacophore distance, S3/S4 region
[3] = Table A7-1, between pharmacophore elements of the bound compound
[4] = Table A8-6, nearest protein atom in cell to the left
[5] = Table A2-7: SER 628 (CB, O, OG)

MASP-2 CCP2-SP, sequence (O00187 445-686): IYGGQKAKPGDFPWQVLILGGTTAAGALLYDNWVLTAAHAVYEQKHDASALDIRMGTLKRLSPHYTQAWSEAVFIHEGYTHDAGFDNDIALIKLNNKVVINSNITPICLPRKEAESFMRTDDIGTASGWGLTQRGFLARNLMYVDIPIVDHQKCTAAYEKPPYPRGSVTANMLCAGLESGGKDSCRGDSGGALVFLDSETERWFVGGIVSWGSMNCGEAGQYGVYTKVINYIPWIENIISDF
MASP-2 CCP2-SP, sequence (O00187 364-432 partner): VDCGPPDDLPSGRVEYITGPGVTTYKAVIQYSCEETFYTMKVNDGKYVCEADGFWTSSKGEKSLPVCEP

SMILES: C[C@H](NC(=O)[C@H]1Cc2c([nH]c3ccccc23)CN1)C(=O)NCc1ccc(C(=N)N)cc1.Cl.Cl [1097_1]
Ligand-pharmacophore element distance, pharmacophore element C2 (Table A4-1, element C2): 0.69
Ligand-pharmacophore element distance, pharmacophore element C3 (Table A4-1, element C3): 0
Ligand-pharmacophore element distance, pharmacophore element C4 (Table A4-1, element C4): 0
Ligand-pharmacophore element distance, pharmacophore element C5 (Table A4-1, element C5): 0
Ligand-pharmacophore element distance, pharmacophore element C6 (Table A4-1, element C6): 0
Ligand-pharmacophore element distance, pharmacophore element C7 (Table A4-1, element C7): 0
Ligand-pharmacophore element distance, pharmacophore element CA1 (Table A4-1, element CA1): 0.29
Ligand-pharmacophore element distance, pharmacophore element CA2 (Table A4-1, element CA2): 0
Ligand-pharmacophore element distance, pharmacophore element CA3 (Table A4-1, element CA3): 0
Ligand-pharmacophore element distance, pharmacophore element CA4 (Table A4-1, element CA4): 0
Ligand-pharmacophore element distance, pharmacophore element CA5 (Table A4-1, element CA5): 0.98
Ligand-pharmacophore element distance, pharmacophore element CA6 (Table A4-1, element CA6): 0
d(CA1,N1) [1]: 3.53
d(CA1,O1) [1]: 4.28
d(CA1,O2) [1]: 4.28
d(H4,O1) [1]: 3.88
d(H4,O2) [1]: 3.35
d(O1,O2) [1]: 3.32
d(CA5,N2) [2]: 4.50
d(N2,C2) [2]: 1.42
d(O2,H3) [2]: 4.58
d(O2,N2) [2]: 2.81
a(CA1, O1, O2) (Table A6-1 pharmacophore angle): 112.80
a(O1, O2, H4) (Table A6-1 pharmacophore angle): 125.81
A(N1, CA1, O1) a) (Table A6-1 pharmacophore angle, all compounds with protonatable center N1 except Methyl-amino-pyridine): 162.99
a(O1, O2, H3) (Table A6-2 pharmacophore angle): 152.91
a(O1, O2, N2) (Table A6-2 pharmacophore angle): 134.93
a(O2, N2, C2) (Table A6-2 pharmacophore angle): 125.76
Pharmacophore torsion angle a(H4, O1, O2, H3) [3]: 86.65
Pharmacophore torsion angle a(H4, O1, O2, N2) [3]: 121.05
Pharmacophore torsion angle a(N1, CA1, O2, H4) [3]: −97.71
Pharmacophore torsion angle a(O1, H4, O2, CA1) [3]: −66.34
Pharmacophore torsion angle a(O1, O2, N2, C2) [3]: 136.92
Pharmacophore torsion angle a(O1, O2, N2, CA5) (Table A7-2, between pharmacophore elements of the bound compound): 148.15
Pharmacophore protein distance to MET_658 (first MET_658 column) (Table A8-6, 6th residue column, nearest protein atom in cell to the left): 2.40
Pharmacophore protein distance to MET_658 (second MET_658 column) (Table A8-6, 9th residue column, nearest protein atom in cell to the left): 3.49
Pharmacophore protein distance to GLY_528 [4]: 3.46
Pharmacophore protein distance to PHE_529 [4]: 2.89
Pharmacophore protein distance to PRO_608 [4]: 3.89
Pharmacophore protein distance to SER_611 [4]: 3.04
Pharmacophore protein distance to TRP_655 (Table A8-6, pharmacophore elements C6, CA3, O3, H1, nearest protein atom in cell to the left): 3.24

H-bond distance to MASP-2 ASP 627 atom OD2: 2.96
H-bond distance to MASP-2 GLY 656 atom N: 3.22
H-bond distance to MASP-2 SER 628 atom O: 2.9
H-bond distance to MASP-2 SER 657 atom O: 2.93
van der Waals contact distance, MASP-2 HIS 483 atom CD2: 3.81
van der Waals contact distance, MASP-2 PHE 529 atom CE2 (Table A2-3): 3.72
van der Waals contact distance TRP 655 atom N (Table A2-13, MASP-2 TRP 655 N): 3.58
van der Waals contact distance GLY 656 atom O (Table A2-14, MASP-2 GLY 656 O): 3.55
van der Waals contact distance SER 657 atom C (Table A2-14, MASP-2 SER 657 C, columns c12-c13 (inferred)): 3.57
SMILES: C[C@H](NC(=O)[C@H]1C[C@H](c2ccccc2)CN1)C(=O)NCc1ccc(C(=N)N)cc1 [compound 1036]

H-bond distance to MASP-2 ASP 627 atom OD2: 3.18
H-bond distance to MASP-2 GLY 656 atom N: 3.18
H-bond distance to MASP-2 GLY 656 atom O: 2.77
H-bond distance to MASP-2 SER 654 atom O: 2.93
H-bond distance to MASP-2 SER 657 atom O: 2.89
van der Waals contact distance, MASP-2 HIS 483 atom CD2: 3.63
van der Waals contact distance, MASP-2 PHE 529 atom CE1 (Table A2-3): 3.75
van der Waals contact distance, MASP-2 PHE 529 atom CE2 (Table A2-3): 3.78
van der Waals contact distance, MASP-2 PRO 606 atom CG (Table A2-4): 3.85
van der Waals contact distance, MASP-2 amino acid atom to compound atom (Table A2-5: TYR 607 (CE1, CE2, OH), PRO 608 (CD, CG), SER 611 (CA)): 3.88
van der Waals contact distance, MASP-2 amino acid atom to compound atom (Table A2-6: SER 611 (CB, OG), ASP 627 (CG, OD1, OD2), SER 628 (C, CA)): 3.6
van der Waals contact distance, MASP-2 amino acid atom to compound atom [5]: 3.53
van der Waals contact distance, MASP-2 amino acid atom to compound atom (Table A2-9, ARG 630, AA atoms CG, CZ): 3.83
van der Waals contact distance, TRP 655 C to compound atom (Table A2-12): 3.8
van der Waals contact distance, TRP 655 CA to compound atom (Table A2-12): 3.36
van der Waals contact distance GLY 656 atom CA (Table A2-13): 3.73
SMILES: C[C@H](NC(=O)[C@H]1C[C@H](c2ccccc2)CN1)C(=O)NCc1ccc(N)nc1 [compound 1012]

SMILES: Cc1nc(N)ccc1CNC(=O)[C@H](C)NC(=O)[C@H]1C[C@H](Cc2ccccc2Br)CN1 [compound 1372, (2R,4S)—N—((S)-1-(((6-Amino-2-methylpyridin-3-yl)methyl)amino)-1-oxopropan-2-yl)-4-(2-bromobenzyl)pyrrolidine-2-carboxamide Di-trifluoroacetate salt]
H-bond distance to MASP-2 ASP 627 atom OD2: 3.17
H-bond distance to MASP-2 GLY 656 atom N: 3.23
H-bond distance to MASP-2 GLY 656 atom O: 2.81
H-bond distance to MASP-2 SER 628 atom O: 3.18
H-bond distance to MASP-2 SER 654 atom O: 2.97
H-bond distance to MASP-2 SER 657 atom O: 2.87
van der Waals contact distance, MASP-2 HIS 483 atom CD2: 3.77
van der Waals contact distance, MASP-2 HIS 483 atom NE2: 3.67
van der Waals contact distance, MASP-2 GLY 528 atom CA (Table A2-2): 3.83
van der Waals contact distance, MASP-2 TYR 607 atom CD1 (Table A2-4): 3.77
van der Waals contact distance, MASP-2 amino acid atom to compound atom [5]: 3.68
van der Waals contact distance, VAL 653 CG1 to compound atom (Table A2-11): 3.32
van der Waals contact distance, TRP 655 CA to compound atom (Table A2-12): 3.48
van der Waals contact distance TRP 655 atom CE3 (Table A2-13, MASP-2 TRP 655 CE3, compound atom in line below): 3.54
van der Waals contact distance TRP 655 atom CZ3 (Table A2-13, MASP-2 TRP 655 CZ3): 3.48

SMILES: C[C@H](NC(=O)[C@H]1C[C@H](Cc2ccccc2)CN1)C(=O)NCc1ccc(C(=N)N)cc1 [compound 1306, (2R,4S)-4-Benzyl-N—((S)-1-((4-carbamimidoylbenzyl)amino)-1-oxopropan-2-yl)pyrrolidine-2-carboxamide]
H-bond distance to MASP-2 ASP 627 atom OD2: 2.6
H-bond distance to MASP-2 GLY 656 atom N: 3.05
H-bond distance to MASP-2 GLY 656 atom O: 2.69
H-bond distance to MASP-2 SER 628 atom O: 2.24
H-bond distance to MASP-2 SER 657 atom O: 2.87
van der Waals contact distance, MASP-2 HIS 483 atom CD2: 3.47
van der Waals contact distance, MASP-2 HIS 483 atom NE2: 3.32
van der Waals contact distance, MASP-2 PHE 529 atom CZ (Table A2-3): 3.63
van der Waals contact distance, MASP-2 TYR 607 atom CD1 (Table A2-4): 3.85
van der Waals contact distance, MASP-2 amino acid atom to compound atom (Table A2-9 second part, ARG 630, AA atoms N, NE, NH1): 3.76
van der Waals contact distance GLY 656 atom C (Table A2-13, MASP-2 GLY 656 C): 3.54
van der Waals contact distance GLY 656 atom CA (Table A2-13): 3.61
